What was measured:
RXF 393 = assay: NCI 60 five-dose screening, RXF 393
Procedure: (§1) The one-dose and five-dose experiments were conducted according to standard NCI protocols.
(§2) The human tumor cell lines of the cancer screening panel are grown in RPMI 1640 medium containing 5% fetal bovine serum and 2 mM L-glutamine. For a typical screening experiment, cells are inoculated into 96 well microtiter plates in 100 μL at plating densities ranging from 5,000 to 40,000 cells/well depending on the doubling time of individual cell lines. After cell inoculation, the microtiter plates are incubated at 37° C., 5% CO2, 95% air and 100% relative humidity for 24 h prior to addition of experimental drugs.
After 24 h, two plates of each cell line are fixed in situ with TCA, to represent a measurement of the cell population for each cell line at the time of drug addition (Tz). Experimental drugs are solubilized in dimethyl sulfoxide at 400-fold the desired final maximum test concentration and stored frozen prior to use. At the time of drug addition, an aliquot of frozen concentrate is thawed and diluted to twice the desired final maximum test concentration with complete medium containing 50 μg/ml gentamicin. Additional four, 10-fold or ½ log serial dilutions are made to provide a total of five drug concentrations plus control. Aliquots of 100 μl of these different drug dilutions are added to the appropriate microtiter wells already containing 100 μl of medium, resulting in the required final drug concentrations.
Following drug addition, the plates are incubated for an additional 48 h at 37° C., 5% CO2, 95% air, and 100% relative humidity. For adherent cells, the assay is terminated by the addition of cold TCA. Cells are fixed in situ by the gentle addition of 50 μl of cold 50% (w/v) TCA (final concentration, 10% TCA) and incubated for 60 minutes at 4° C. […] Bound stain is subsequently solubilized with 10 mM trizma base, and the absorbance is read on an automated plate reader at a wavelength of 515 nm. […] Using the seven absorbance measurements [time zero, (Tz), control growth, (C), and test growth in the presence of drug at the five concentration levels (Ti)], the percentage growth is calculated at each of the drug concentrations levels. Percentage growth inhibition is calculated as: [(Ti−Tz)/(C−Tz)]×100 for concentrations for which Ti>/=Tz [(Ti−Tz)/Tz]×100 for concentrations for which Ti<Tz.
(§3) Three dose response parameters are calculated for each experimental agent. […] The drug concentration resulting in total growth inhibition (TGI) is calculated from Ti=Tz. […] Values are calculated for each of these three parameters if the level of activity is reached; however, if the effect is not reached or is exceeded, the value for that parameter is expressed as greater or less than the maximum or minimum concentration tested.

CCRF-CEM = assay: NCI 60 five-dose screening, CCRF-CEM; details: Homo sapiens, 48 h
Procedure: (§4) The National Cancer Institute's Developmental Therapeutic preclinical 60 human cancer cell lines were used for an in vitro screen. […] The one-dose and five-dose experiments were conducted according to standard NCI protocols.
(§5) The human tumor cell lines of the cancer screening panel are grown in RPMI 1640 medium containing 5% fetal bovine serum and 2 mM L-glutamine. For a typical screening experiment, cells are inoculated into 96 well microtiter plates in 100 μL at plating densities ranging from 5,000 to 40,000 cells/well depending on the doubling time of individual cell lines. […]
(§6) Following drug addition, the plates are incubated for an additional 48 h at 37° C., 5% CO2, 95% air, and 100% relative humidity. […] Bound stain is subsequently solubilized with 10 mM trizma base, and the absorbance is read on an automated plate reader at a wavelength of 515 nm. […] Using the seven absorbance measurements [time zero, (Tz), control growth, (C), and test growth in the presence of drug at the five concentration levels (Ti)], the percentage growth is calculated at each of the drug concentrations levels. Percentage growth inhibition is calculated as: [(Ti−Tz)/(C−Tz)]×100 for concentrations for which Ti>/=Tz [(Ti−Tz)/Tz]×100 for concentrations for which Ti<Tz.
(§7) Three dose response parameters are calculated for each experimental agent. […]

U251 = assay: NCI 60 five-dose screening, U251
Procedure: as §4, §2
(§8) After 24 h, two plates of each cell line are fixed in situ with TCA, to represent a measurement of the cell population for each cell line at the time of drug addition (Tz). […]
as §6, §3

NCI-H460 = assay: NCI 60 five-dose screening, NCI-H460
Procedure: as §4, §2, §8, §6, §3

A498 = assay: NCI 60 five-dose screening, A498
Procedure: as §1, §2
(§9) After 24 h, two plates of each cell line are fixed in situ with TCA, to represent a measurement of the cell population for each cell line at the time of drug addition (Tz). Experimental drugs are solubilized in dimethyl sulfoxide at 400-fold the desired final maximum test concentration and stored frozen prior to use. […]
as §6, §3

OVCAR-4 = assay: NCI 60 five-dose screening, OVCAR-4
Procedure: as §4, §2, §8, §6, §3

NCI-H522 = assay: NCI 60 five-dose screening, NCI-H522
Procedure: as §4, §2, §8, §6, §3

RPMI-8226 = assay: NCI 60 five-dose screening, RPMI-8226
Procedure: as §4, §2, §8, §6, §3

SW-620 = assay: NCI 60 five-dose screening, SW-620
Procedure: as §4, §2, §8, §6, §3

HCC-2998 = assay: NCI 60 five-dose screening, HCC-2998
Procedure: as §4, §2, §8, §6, §3

IGROV1 = assay: NCI 60 five-dose screening, IGROV1
Procedure: as §4, §2, §8, §6, §3

MDA-MB-435 = assay: NCI 60 five-dose screening, MDA-MB-435
Procedure: as §4, §2, §8, §6, §3

OVCAR-3 = assay: NCI 60 five-dose screening, OVCAR-3; type: cell-based, human
UO-31 = assay: NCI 60 five-dose screening, UO-31
Procedure: as §4, §2, §8, §6, §3

ACHN = assay: NCI 60 five-dose screening, ACHN; details: 48 h
Procedure: as §1, §2, §9, §6, §3

MOLT-4 = assay: NCI 60 five-dose screening, MOLT-4
Procedure: as §4, §2, §8, §6, §3

K-562 = assay: NCI 60 five-dose screening, K-562; details: Homo sapiens, K562, 48 h
Procedure: as §4, §5, §6, §7

786.0 = assay: NCI 60 five-dose screening, 786.0
Procedure: as §1, §2, §9, §6, §3

[1] = test system: 60 human cancer cell lines; assay: NCI 60 cell line assay, panel summary; type: cell-based; details: for GI50: Homo sapiens, 60 cell
SF-268 = assay: NCI 60 five-dose screening, SF-268
Procedure: as §4, §2, §8, §6, §3

SNB-75 = assay: NCI 60 five-dose screening, SNB-75
Procedure: as §4, §2, §8, §6, §3

DU-145 = assay: NCI 60 five-dose screening, DU-145
Procedure: as §4, §2, §8, §6, §3

SK-OV-3 = assay: NCI 60 five-dose screening, SK-OV-3
Procedure: as §1, §2, §9, §6, §3

MDA-MB-231/ATCC = assay: NCI 60 five-dose screening, MDA-MB-231/ATCC
Procedure: as §4, §2, §8, §6, §3

PC-3 = assay: NCI 60 five-dose screening, PC-3
Procedure: as §4, §2, §8, §6, §3

[2] = RXF 393 (Renal Cancer), five-dose, 48 h

Compound: COc1ccc(SC2c3cc(OC)c(OC)cc3Oc3nc(N)c(C#N)c(N)c32)cc1 (centres unmarked) [Compound 1, 2,4-diamino-7,8-dimethoxy-5-((4-methoxyphenyl)thio)-5H-chromeno[2,3-b]pyridine-3-carbonitrile]
- GI50 (RXF 393; Homo sapiens, RXF 393, 48 h, RXF 393 (Renal Cancer), five-dose, 48 h): 450 nM
- CC50 (RXF 393; Homo sapiens, RXF 393, 48 h, read-out: LC50): 4520 nM
- GI50 (RXF 393; [2]): 740 nM
- TGI (RXF 393; [2]): 2010 nM
- GI50 (CCRF-CEM): 310 nM
- CC50 (CCRF-CEM; read-out: LC50): > 100000 nM
- GI50 (U251; Homo sapiens, U-251, 48 h): 950 nM
- CC50 (U251; Homo sapiens, U-251, 48 h, read-out: LC50): 4830 nM
- TGI (U251; U251 (CNS Cancer), five-dose, 48 h): 2180 nM
- GI50 (NCI-H460; Homo sapiens, NCI-H460, 48 h): 1660 nM
- CC50 (NCI-H460; Homo sapiens, NCI-H460, 48 h, read-out: LC50): > 100000 nM
- TGI (NCI-H460; NCI-H460 (Non-small cell Lung), five-dose, 48 h): 4380 nM
- TGI (A498; A498 (Renal Cancer), five-dose, 48 h): 2850 nM
- GI50 (A498; Homo sapiens, A498, 48 h): 1420 nM
- CC50 (A498; Homo sapiens, A498, 48 h, read-out: LC50): 5730 nM
- GI50 (OVCAR-4; Homo sapiens, OVCAR-4, 48 h): 1330 nM
- CC50 (OVCAR-4; Homo sapiens, OVCAR-4, 48 h, read-out: LC50): 5590 nM
- TGI (OVCAR-4; OVCAR-4 (Ovarian Cancer), five-dose, 48 h): 2730 nM
- GI50 (NCI-H522; Homo sapiens, NCI-H522, 48 h): 1370 nM
- CC50 (NCI-H522; Homo sapiens, NCI-H522, 48 h, read-out: LC50): 5600 nM
- TGI (NCI-H522; NCI-H522 (Non-small cell Lung), five-dose, 48 h): 2770 nM
- GI50 (RPMI-8226; Homo sapiens, RPMI-8226, 48 h): 350 nM
- CC50 (RPMI-8226; Homo sapiens, RPMI-8226, 48 h, read-out: LC50): > 100000 nM
- TGI (RPMI-8226; RPMI-8226 (Leukemia), five-dose, 48 h): 1810 nM
- GI50 (SW-620; Homo sapiens, SW-620, 48 h): 1240 nM
- CC50 (SW-620; Homo sapiens, SW-620, 48 h, read-out: LC50): 8290 nM
- TGI (SW-620; SW-620 (Colon Cancer), five-dose, 48 h): 3200 nM
- TGI (HCC-2998; HCC-2998 (Colon Cancer), five-dose, 48 h): 3120 nM
- GI50 (HCC-2998; Homo sapiens, HCC 2998, 48 h): 1720 nM
- CC50 (HCC-2998; Homo sapiens, HCC 2998, 48 h, read-out: LC50): 5670 nM
- GI50 (IGROV1; Homo sapiens, IGROV-1, 48 h): 760 nM
- CC50 (IGROV1; Homo sapiens, IGROV-1, 48 h, read-out: LC50): 6420 nM
- TGI (IGROV1; IGROV1 (Ovarian Cancer), five-dose, 48 h): 2370 nM
- GI50 (MDA-MB-435; Homo sapiens, MDA-MB-435, 48 h): 1500 nM
- CC50 (MDA-MB-435; Homo sapiens, MDA-MB-435, 48 h, read-out: LC50): 5700 nM
- TGI (MDA-MB-435; MDA-MB-435 (Melanoma), five-dose, 48 h): 2920 nM
- CC50 (OVCAR-3; Homo sapiens, OVCAR-3, 48 h, read-out: LC50): 5030 nM
- GI50 (OVCAR-3; Homo sapiens, OVCAR-3 (Ovarian Cancer), five-dose, 48 h): 1060 nM
- TGI (OVCAR-3; OVCAR-3 (Ovarian Cancer), five-dose, 48 h): 2310 nM
- GI50 (UO-31; Homo sapiens, UO-31, 48 h): 1340 nM
- CC50 (UO-31; Homo sapiens, UO-31, 48 h, read-out: LC50): 5110 nM
- TGI (UO-31; UO-31 (Renal Cancer), five-dose, 48 h): 2610 nM
- TGI (ACHN; ACHN (Renal Cancer), five-dose): 3120 nM
- GI50 (ACHN; Homo sapiens, ACHN): 1740 nM
- CC50 (ACHN; Homo sapiens, ACHN, read-out: LC50): 5580 nM
- GI50 (MOLT-4; Homo sapiens, MOLT-4, 48 h): 310 nM
- CC50 (MOLT-4; Homo sapiens, MOLT-4, 48 h, read-out: LC50): > 100000 nM
- TGI (MOLT-4; MOLT-4 (Leukemia), five-dose, 48 h): 1600 nM
- GI50 (K-562): 440 nM
- CC50 (K-562; read-out: LC50): > 100000 nM
- TGI (786.0; 786.0 (Renal Cancer), five-dose, 48 h): 1730 nM
- GI50 (786.0; Homo sapiens, 786-0, 48 h): 490 nM
- CC50 (786.0; Homo sapiens, 786-0, 48 h, read-out: LC50): 4200 nM
- GI50 ([1]; at least one studied cell line of each of leukemia, colon cancer, CNS cancer, melanoma, ovarian cancer, renal cancer, and breast cancer): < 1000 nM
- GI50 ([1]; every leukemia cell line studied): < 500 nM
- anti-proliferative activity ([1]; nine major cancer cell lines, initial single dose and five dose screening (FIG. 2, FIG. 3)): anti-proliferative activity
- GI50 (SF-268; Homo sapiens, SF-268, 48 h): 1550 nM
- CC50 (SF-268; Homo sapiens, SF-268, 48 h, read-out: LC50): 6050 nM
- TGI (SF-268; SF-268 (CNS Cancer), five-dose, 48 h): 3070 nM
- GI50 (SNB-75; Homo sapiens, SNB-75, 48 h): 1310 nM
- CC50 (SNB-75; Homo sapiens, SNB-75, 48 h, read-out: LC50): 5240 nM
- TGI (SNB-75; SNB-75 (CNS Cancer), five-dose, 48 h): 2620 nM
- TGI (DU-145; DU-145 (Prostate Cancer), five-dose, 48 h): 3110 nM
- GI50 (DU-145; Homo sapiens, DU-145, 48 h): 1730 nM
- CC50 (DU-145; Homo sapiens, DU-145, 48 h, read-out: LC50): 5590 nM
- GI50 (SK-OV-3; Homo sapiens, SK-OV-3, 48 h): 1810 nM
- CC50 (SK-OV-3; Homo sapiens, SK-OV-3, 48 h, read-out: LC50): 5660 nM
- TGI (SK-OV-3; SK-OV-3 (Ovarian Cancer), five-dose, 48 h): 3200 nM
- GI50 (MDA-MB-231/ATCC; Homo sapiens, MDA-MB-231, 48 h): 1430 nM
- CC50 (MDA-MB-231/ATCC; Homo sapiens, MDA-MB-231, 48 h, read-out: LC50): 5510 nM
- TGI (MDA-MB-231/ATCC; MDA-MB-231/ATCC (Breast Cancer), five-dose, 48 h): 2810 nM
- GI50 (PC-3; Homo sapiens, PC-3, 48 h): 1160 nM
- CC50 (PC-3; Homo sapiens, PC-3, 48 h, read-out: LC50): 5370 nM
- TGI (PC-3; PC-3 (Prostate Cancer), five-dose, 48 h): 2490 nM
